# Target: T1, LdTOPII (Leishmania donovani, UniProt Q9XZN0)
# T1 sequence (Q9XZN0 1-1236): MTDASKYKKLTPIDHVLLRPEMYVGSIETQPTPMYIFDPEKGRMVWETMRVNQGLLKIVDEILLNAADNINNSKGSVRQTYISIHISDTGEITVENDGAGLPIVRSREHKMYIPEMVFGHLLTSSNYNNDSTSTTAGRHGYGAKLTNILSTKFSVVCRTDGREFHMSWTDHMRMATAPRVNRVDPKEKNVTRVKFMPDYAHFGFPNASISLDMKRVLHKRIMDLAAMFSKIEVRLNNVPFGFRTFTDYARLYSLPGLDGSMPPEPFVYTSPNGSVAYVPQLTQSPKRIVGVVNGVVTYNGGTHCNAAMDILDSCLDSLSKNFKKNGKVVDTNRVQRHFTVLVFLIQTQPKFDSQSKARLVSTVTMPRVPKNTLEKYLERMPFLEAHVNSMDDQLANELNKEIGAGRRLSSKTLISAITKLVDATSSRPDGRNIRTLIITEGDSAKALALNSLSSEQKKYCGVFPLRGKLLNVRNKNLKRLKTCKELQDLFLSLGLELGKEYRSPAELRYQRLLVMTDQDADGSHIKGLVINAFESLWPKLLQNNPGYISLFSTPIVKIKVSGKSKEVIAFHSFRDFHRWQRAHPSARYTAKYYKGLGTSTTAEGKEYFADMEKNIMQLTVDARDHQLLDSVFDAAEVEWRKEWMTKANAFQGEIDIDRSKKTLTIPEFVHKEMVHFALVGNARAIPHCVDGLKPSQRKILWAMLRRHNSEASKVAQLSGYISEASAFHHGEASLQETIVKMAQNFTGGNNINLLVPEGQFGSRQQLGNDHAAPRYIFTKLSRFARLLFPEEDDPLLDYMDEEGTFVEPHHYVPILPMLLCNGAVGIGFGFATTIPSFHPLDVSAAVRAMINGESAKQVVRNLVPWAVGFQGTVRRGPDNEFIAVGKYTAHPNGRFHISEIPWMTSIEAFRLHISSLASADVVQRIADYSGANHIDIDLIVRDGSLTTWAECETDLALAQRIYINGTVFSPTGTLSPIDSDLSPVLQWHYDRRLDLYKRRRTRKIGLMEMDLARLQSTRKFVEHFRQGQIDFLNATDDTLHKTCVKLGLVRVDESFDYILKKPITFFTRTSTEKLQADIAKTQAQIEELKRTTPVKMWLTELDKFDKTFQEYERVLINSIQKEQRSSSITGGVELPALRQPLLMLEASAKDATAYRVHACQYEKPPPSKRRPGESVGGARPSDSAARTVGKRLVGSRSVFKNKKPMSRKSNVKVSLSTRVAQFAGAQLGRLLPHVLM
# Conditions: 2 mmol/L ATP, 30°C
structure (smiles),measurement,value
Nc1ncnc2c1ncn2[C@@H]1O[C@H](COP(=O)(O)OP(=O)(O)OP(=O)(O)O)[C@@H](O)[C@H]1O [ATP],pyruvate kinase/lactate dehydrogenase coupled ATPase assay,JVPH3 and JVPH4 did not interfere with LdTOPII-mediated ATP hydrolysis

# — article PMC4186449 (Pharmacology Research & Perspectives, 2014)
